In brackets after ≈: the same amount, converted by molar mass. Like-named read-outs stand apart in the source and are kept apart here.
Experiments:
tumor = settings: Japanese patent publication No. 47194/81 and U.S. Pat. No. 4,303,785; cited from earlier work
[1] = Storage stability in solid state; type: physicochemical; settings: -10° C.
Text: In the above-mentioned known processes for the preparation of (2"R)-4'-O-THPADM of formula (A) in which daunomycin (DM) of formula (II) is used as the starting compound, and which are effected via the 14-bromodaunomycin of formula (V) as the intermediate product (namely the processes of the aforesaid Japanese patent application first publication "Kokai" Nos. 104,299/80 and 156,300/81), there are formed great amounts of the undesired by-products in the tetrahydropyranylation step so that the intended final compound can be obtained only in a low yield with these prior art processes. The intermediate compound, 14-bromodaunomycin is so unstable that even when it has been stored in its solid state at -10° C. for about 1 week, 14-bromodaunomycin can remain only in such an amount which is as little as about two-thirds of its initial amount before its storage, due to that the amino sugar moiety bonded to the 7-position can be cleaved to bring about the degradation of 14-bromodaunomycin.

[2] = tested on: murine leukemia P-388 cells; assay: Growth inhibition by MTT assay, P-388; type: cell-based; settings: Mus musculus, read-out: IC50 value (50% growth inhibitory concentration), P-388
Method: (§1) Antitumor activities of 14-chlorodaunomycin against various experimental tumors, including murine leukemia P-388 cells, murine leukemia P-388 cells (resistant to adriamycin), murine melanoma B16 cells, human lung cancer PC14 cells and murine leukemia L-1210 cells, were tested and evaluated in vitro by the following procedure:
(§2) The tumor cells were cultivated in RPMI 1640 medium supplemented with 10% fetal calf serum, 10μM 2-hydroxyethyldisulfide and kanamycin at 50 μg/ml (the growth medium), under air containing 5% CO2 at 37° C.
(§3) The tumor cells were incubated at initial densities of 1.5×10^4 cells/ml with murine melanoma B16; 2×10^4 cells/ml with murine leukemia P388, P388/ADR and L-1210; and 2.5×10^4 cells/ml with human lung cancer PC14 cells in the growth medium further containing graded concentrations of each test compound, for 72 hours. The IC50 value, namely the 50% growth inhibitory concentration of the tested compound was evaluated by MTT assay method (see Mosmann, T; "J. Immunol. Methods", 65, 55-63 (1983).

[3] = tested on: murine leukemia P-388 cells (resistant to adriamycin); assay: Growth inhibition by MTT assay, P-388 resistant to adriamycin; type: cell-based; settings: Mus musculus, read-out: IC50 value (50% growth inhibitory concentration), P-388 resistant to adriamycin
Method: as §1, §2, §3

[4] = tested on: murine melanoma B16 cells; assay: Growth inhibition by MTT assay, B16; type: cell-based; settings: Mus musculus, read-out: IC50 value (50% growth inhibitory concentration), B16
Method: as §1, §2, §3

[5] = tested on: human lung cancer PC14 cells; assay: Growth inhibition by MTT assay, PC14; type: cell-based; settings: read-out: IC50 value (50% growth inhibitory concentration), PC14
Method: as §1, §2, §3

[6] = tested on: murine leukemia L-1210 cells; assay: Growth inhibition by MTT assay, L-1210; type: cell-based; settings: Mus musculus, read-out: IC50 value (50% growth inhibitory concentration), L-1210
Method: as §1, §2, §3

[7] = Stability in solution in an organic solvent; type: physicochemical
[8] = tested on: various kinds of experimental tumors; assay: Antitumor activity against various experimental tumors (in words); type: cell-based
Method: as §1, with “procedure: […]” for “procedure:”

[9] = P388, P-388, 72 hours, MTT assay, 2×10^4 cells/ml
[10] = P388/ADR, 72 hours, MTT assay, 2×10^4 cells/ml
[11] = B16, 72 hours, MTT assay, 1.5×10^4 cells/ml
[12] = PC-14, PC14, 72 hours, MTT assay, 2.5×10^4 cells/ml
[13] = L1210, L-1210, 72 hours, MTT assay, 2×10^4 cells/ml

COc1cccc2c1C(=O)c1c(O)c3c(c(O)c1C2=O)C[C@@](O)(C(=O)CO)C[C@@H]3O[C@H]1C[C@H](N)[C@H](O[C@@H]2CCCCO2)[C@H](C)O1 [4'-O-tetrahydropyranyladriamycin]
antitumor activity (tumor): has antitumor activity

COc1cccc2c1C(=O)c1c(O)c3c(c(O)c1C2=O)C[C@@](O)(C(=O)CBr)C[C@@H]3O[C@H]1C[C@H](N)[C@H](O)[C@H](C)O1 [14-bromodaunomycin]
amount remaining of its initial amount after storage ([1]; 14-bromodaunomycin (comparator intermediate), solid state, about 1 week): about two-thirds

COc1cccc2c1C(=O)c1c(O)c3c(c(O)c1C2=O)C[C@@](O)(C(=O)CCl)C[C@@H]3O[C@H]1C[C@H](N)[C@H](O)[C@H](C)O1 [14-chlorodaunomycin]
IC50 ([2]; P388, 72 h): 0.0963 µg/mL (≈ 0.171 µM)
IC50 ([3]; P388, 72 h): 0.552 µg/mL (≈ 0.982 µM)
IC50 ([4]; B16, 72 h): 0.093 µg/mL (≈ 0.165 µM)
IC50 ([5]; PC-14, 72 h): 0.96 µg/mL (≈ 1.71 µM)
IC50 ([6]; L1210, 72 h): 0.268 µg/mL (≈ 0.477 µM)
decomposition on storage ([1]; solid form, 1 week or so): no substantial decomposition
decomposition rate in solution compared with 14-bromodaunomycin ([7]; organic solvent containing some water and an acidic compound, same conditions): considerably smaller than that of 14-bromodaunomycin
stability in solution in an organic solvent ([7]; solution in an organic solvent): somewhat stable
antitumor activity [8]: remarkable antitumor activity

COc1cccc2c1C(=O)c1c(O)c3c(c(O)c1C2=O)C[C@@](O)(C(=O)CO)C[C@@H]3O[C@H]1C[C@H](N)[C@H](O)[C@H](C)O1 [Adriamycin, adriamycin]
IC50 [2, 9]: 0.033 µg/mL (≈ 0.0607 µM)
IC50 [3, 10]: 2.06 µg/mL (≈ 3.79 µM)
IC50 [4, 11]: 0.101 µg/mL (≈ 0.186 µM)
IC50 [5, 12]: 0.765 µg/mL (≈ 1.41 µM)
IC50 [6, 13]: 0.154 µg/mL (≈ 0.283 µM)

COc1cccc2c1C(=O)c1c(O)c3c(c(O)c1C2=O)C[C@@](O)(C(C)=O)C[C@@H]3O[C@H]1C[C@H](N)[C@H](O)[C@H](C)O1 [Daunomycin, daunomycin]
IC50 [2, 9]: 0.0163 µg/mL (≈ 0.0309 µM)
IC50 [3, 10]: 0.668 µg/mL (≈ 1.27 µM)
IC50 [4, 11]: 0.0449 µg/mL (≈ 0.0851 µM)
IC50 [5, 12]: 0.237 µg/mL (≈ 0.449 µM)
IC50 [6, 13]: 0.0655 µg/mL (≈ 0.124 µM)
